Test results taken from patent US11401255B2, “Small molecule activators of Parkin enzyme function” (Mayo Foundation for Medical Education and Research, priority 2016, dated 2022).
Several values for one entry are separate records, joined by “and”; a condition that tells them apart may be missing. Equal entries are not always repeated. Where two headings read alike, the source gives them in different places.

Tests used:
FLAG-Parkin C431S = FLAG-Parkin C431S (Homo sapiens (Human), UniProt O60260, C431S); assay: Ub-charging of FLAG-Parkin C431S (MSD assay); type: cell-based; settings: 5 μM, 2 h before 3.5 μM CCCP
Method: Ubiquitin charging of Parkin was monitored by ELISA-like MesoScale Discovery assay that uses electrochemiluminescence. Plates were coated with Flag antibody and incubated with lysates from 3×FLAG-Parkin C431S cells that had been pretreated for 2 h with 5 μM of Compounds 1, 2, 3, 4, and 31 or DMSO (left, −) before incubating them for another 2 h with (+) or without (−) low-dose (3.5 μM) CCCP. Positive control (PC) cells were treated with 10 μM CCCP. After washing, pS65-Ub antibody was added together with a sulfo-tagged anti-rabbit antibody. Values were normalized to the PC (10 μM CCCP) and negative control (−). Statistical analysis was performed by one-way ANOVA with Tukey's post-hoc test. ****, p<0.0001.
For ELISA assays, 96-well standard bind plates (Mesoscale Discovery) were coated with antibodies (FLAG, Sigma, F3165 or pSer65-Ub, both 1:250) in bicarbonate buffer (15 mM Na2CO3, 35 mM NaHCO3, pH 9.4) overnight and blocked with 5% BSA in TBS containing 0.02% Tween-20 (TBST). For Parkin Ub-charging, cell lysates were prepared in RIPA buffer (50 mM Tris pH 8.0, 150 mM NaCl, 1% NP-40, 0.5% deoxycholate, 0.1% sodium dodecyl sulphate (SDS)). 25 μg of lysates were added to the plates and incubated for 2 h. To quantify pSer65-Ub, cell lysates were prepared in NP-40 buffer (50 mM Tris pH 7.6, 150 mM NaCl, and 0.5% NP-40) and diluted to 0.18% NP-40 with 1% BSA in TBST. 6.25 μg of lysates were added to the plates overnight and incubated at 4° C. After primary antibody incubation, plates were washed and incubated with mouse detection antibodies (Ub, CST, #3933 or Ub, Millipore, MAB 150 both 1:250) for 1 h at RT. Secondary sulfo-tag conjugated antibodies were incubated for 1 h in 1% BSA/TBST before plates were measured in 2× READ buffer using a Mesoscale Discovery Sector Imager 2400 (both Mesoscale Discovery).

CYP 3A4 = CYP 3A4 (Homo sapiens (Human), UniProt P08684); assay: in vitro; settings: % Mean
Method: (§1) CYP450 inhibition profiling provides valuable information regarding any possible drug-drug interactions for a test compound.
(§2) All experiments were performed using P450-Glo™ Assay Systems (Promega) in accordance with the manufacturer's protocols. The P450-Glo™ Assays provide a luminescent readout-based method for measuring cytochrome P450 activity. A conventional cytochrome P450 reaction was performed by incubating the cytochrome P450 and a luminogenic cytochrome P450 substrate. The substrates in the P450-Glo™ assays are derivatives of beetle luciferin. The derivatives themselves are not substrates for luciferase but are converted by cytochrome P450s to luciferin, which in turn reacts with luciferase to produce light. The amount of light produced was directly proportional to cytochrome P450 activity. All test points were performed in quadruplicates. Control membranes (without CYPs) represented the Negative control (baseline).
(§3) The following reference compounds were used to assess CYP inhibition: […]

CYP 1A2 = CYP 1A2 (Homo sapiens (Human), UniProt P05177); assay: in vitro
Method: as §1, §2, §3

CYP 2C19 = CYP 2C19 (Homo sapiens (Human), UniProt P33261); assay: in vitro
Method: as §1, §2, §3

TA 100 = assay: Ames Test, strain TA 100
Text: The test used amino acid-dependent strains of Salmonella typhimurium and Escherichia coli to detect point mutations which involved substitution, addition or deletion of one or a few DNA base pairs. Point mutations were introduced in the histidine (Salmonella typhimurium) or the tryptophan (Escherichia coli) operon, making the tester strains incapable of producing these amino acids. The test detected mutations that revert the mutations present in the bacteria, restoring the functional capability to synthesize histidine or tryptophan. The revertant bacteria were detected by the ability to grow in the absence of the amino acid required by the parent test strain. A mutagenic potential of a tested compound was assessed by exposing these bacterial strains to different concentrations of the compounds and estimating number of revertant colonies grown in the absence (trace quantities) of the amino acid.
DMSO was used as the negative control.
For each experiment, tester strain cultures were grown overnight in Oxoid nutrient broth #2 at 37° C. with shaking at 235 rpm to a density of 1-2×10^9 colony forming units/mL (OD540˜2).
The tester strain (10 μL of night culture) was mixed with the test agent (10 µL of the DMSO stock) and GM liquid medium (30 μL). The obtained mixture was incubated at room temperature for 5 min in a sterile 1.5 mL tube. Then, to the tube was added 200 μL of molten top agar stored at 44° C. to prevent solidifying. After mixing with a pipette, the mixture was poured onto the surface of a GM agar plate (2.0 mL of GM agar per plate). After solidifying the top agar, the plate was inverted and incubated at 37° C. for 48 hours. Then, results were expressed as number of revertant colonies per plate.

CYP 2C9 = CYP 2C9 (Homo sapiens (Human), UniProt P11712); assay: P450-Glo CYP450 inhibition, CYP 2C9; type: in vitro ADME; settings: CYP 2C9, 10 μM; for inhibition at 10 µM: human, P450-Glo Assay System (Promega), CYP 2C9 membranes
Method: as §1, §2, §3

[1] = read-out: Inhibition, % (individual replicates)

CYP 2C19, sequence (P33261 whole entry): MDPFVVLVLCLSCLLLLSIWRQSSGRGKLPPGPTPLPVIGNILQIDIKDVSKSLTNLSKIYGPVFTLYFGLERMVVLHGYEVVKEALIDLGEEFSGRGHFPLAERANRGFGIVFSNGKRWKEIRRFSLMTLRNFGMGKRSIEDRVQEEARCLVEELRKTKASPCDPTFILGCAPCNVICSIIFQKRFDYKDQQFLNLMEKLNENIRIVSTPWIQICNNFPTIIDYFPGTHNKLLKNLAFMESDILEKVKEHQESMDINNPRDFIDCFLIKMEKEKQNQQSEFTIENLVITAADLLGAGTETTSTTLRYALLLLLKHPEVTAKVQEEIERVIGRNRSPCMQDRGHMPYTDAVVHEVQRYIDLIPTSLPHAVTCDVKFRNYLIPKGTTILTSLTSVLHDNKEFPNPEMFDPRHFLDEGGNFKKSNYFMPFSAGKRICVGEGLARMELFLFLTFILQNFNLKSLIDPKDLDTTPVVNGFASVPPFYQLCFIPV
CYP 1A2, sequence (P05177 whole entry): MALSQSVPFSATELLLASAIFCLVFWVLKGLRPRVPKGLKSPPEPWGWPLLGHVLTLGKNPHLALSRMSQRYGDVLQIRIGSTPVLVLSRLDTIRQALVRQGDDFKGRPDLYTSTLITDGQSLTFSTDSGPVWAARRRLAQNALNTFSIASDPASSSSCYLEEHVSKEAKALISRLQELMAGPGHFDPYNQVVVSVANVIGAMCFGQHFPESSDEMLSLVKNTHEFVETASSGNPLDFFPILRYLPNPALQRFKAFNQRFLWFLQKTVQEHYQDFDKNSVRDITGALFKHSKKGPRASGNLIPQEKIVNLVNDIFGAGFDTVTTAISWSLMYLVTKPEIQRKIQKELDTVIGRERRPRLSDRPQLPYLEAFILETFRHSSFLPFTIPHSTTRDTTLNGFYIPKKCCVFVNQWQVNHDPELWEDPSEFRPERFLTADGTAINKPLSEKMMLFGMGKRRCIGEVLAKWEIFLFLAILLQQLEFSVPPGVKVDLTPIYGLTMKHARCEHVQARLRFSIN
CYP 3A4, sequence (P08684 whole entry): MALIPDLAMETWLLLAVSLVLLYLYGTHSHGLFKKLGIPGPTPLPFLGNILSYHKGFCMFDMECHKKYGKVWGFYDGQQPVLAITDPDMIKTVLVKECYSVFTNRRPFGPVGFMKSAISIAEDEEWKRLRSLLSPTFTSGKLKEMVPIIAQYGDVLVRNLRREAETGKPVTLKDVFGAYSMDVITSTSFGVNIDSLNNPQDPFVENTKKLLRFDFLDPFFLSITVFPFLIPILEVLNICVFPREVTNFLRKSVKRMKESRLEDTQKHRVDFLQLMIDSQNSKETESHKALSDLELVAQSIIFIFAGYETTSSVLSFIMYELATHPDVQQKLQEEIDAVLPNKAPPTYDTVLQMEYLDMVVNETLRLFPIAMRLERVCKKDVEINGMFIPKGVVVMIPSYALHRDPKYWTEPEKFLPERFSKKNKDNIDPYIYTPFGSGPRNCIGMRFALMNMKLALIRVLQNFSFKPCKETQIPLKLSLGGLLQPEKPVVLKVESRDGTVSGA
CYP 2C9, sequence (P11712 whole entry): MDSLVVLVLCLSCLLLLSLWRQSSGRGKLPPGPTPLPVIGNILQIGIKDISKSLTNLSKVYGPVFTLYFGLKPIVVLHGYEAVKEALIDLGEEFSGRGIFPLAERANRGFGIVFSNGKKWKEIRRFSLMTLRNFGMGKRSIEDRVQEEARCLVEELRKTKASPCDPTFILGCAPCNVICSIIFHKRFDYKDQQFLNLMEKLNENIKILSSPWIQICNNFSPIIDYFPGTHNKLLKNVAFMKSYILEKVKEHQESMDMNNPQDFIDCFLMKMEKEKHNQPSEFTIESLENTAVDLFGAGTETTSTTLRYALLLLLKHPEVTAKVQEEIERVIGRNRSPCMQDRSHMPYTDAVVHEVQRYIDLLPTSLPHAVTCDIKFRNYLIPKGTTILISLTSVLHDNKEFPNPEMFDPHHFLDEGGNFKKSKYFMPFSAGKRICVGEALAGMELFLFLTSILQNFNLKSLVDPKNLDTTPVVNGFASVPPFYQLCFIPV

Row | SMILES | Ub-charging of FLAG-Parkin C431S (MSD assay) (FLAG-Parkin C431S) | inhibition at 10 µM (CYP 3A4) | inhibition at 10 µM (CYP 1A2; % (individual replicates)) | inhibition at 10 µM (CYP 1A2; % Mean) | inhibition at 10 µM (CYP 2C19; % Mean) | Fold increase (over baseline) (TA 100; TA 100, 50 μM) | Mean ± SD (TA 100; TA 100, 50 μM) | Fold increase (over baseline) (TA 100; TA 100, 100 μM) | Mean ± SD (TA 100; TA 100, 100 μM) | Fold increase (over baseline) (TA 100; TA 100, 200 μM) | Mean ± SD (TA 100; TA 100, 200 μM) | Inhibition, % (individual replicates) (CYP 2C9) | inhibition at 10 µM (CYP 2C9; read-out: Inhibition, % Mean) | inhibition at 10 µM (CYP 2C9; [1]) | inhibition at 10 µM (CYP 2C19; % (individual replicates)) | mutagenic activity (TA 100; TA 100, both 100 and 200 μM)
1 | O=C(Cn1cnc2c1CCCC2)Nc1ccc(-c2ccccc2)cc1 [Compound 1] | enhanced Ub-charging | -24.4% | 73.2% | 69% | 9.4% | 0 | 0 ± 0 revertant colonies per plate | 0 | 0 ± 0 revertant colonies per plate | 0 | 0 ± 0 revertant colonies per plate | 40.6% and 11.1% and 15.7% and 28.5% | 24% | – | – | –
2 | CC(C)c1nccn1CC(=O)Nc1ccc(-c2ccccc2)cc1 [Compound 2] | enhanced Ub-charging | -14.3% | 49.3% | 40.4% | -9.5% | 1.37 | 8.5 ± 6.36 revertant colonies per plate | 0.97 | 6 ± 2.83 revertant colonies per plate | 1.61 | 10 ± 0 revertant colonies per plate | 30.3% and 25.4% and 21.4% | 28.4% | 36.6% | – | –
3 | CC(C)(C)Sc1ccc(NC(=O)Cn2ccnc2)cc1 [Compound 3] | enhanced Ub-charging | 88.3% | 98.6% | 97.6% | 92.5% | 0.85 | 5.5 ± 0.7 revertant colonies per plate | >32 | >200 revertant colonies per plate | >48 | >300 revertant colonies per plate | 98.8% and 98.0% and 97.4% | 97.6% | 96.2% | 97.4% | mutagenic activity
4 | O=C(Cn1ccnc1-c1ccccn1)Nc1ccc(-c2ccccc2)cc1 [Compound 4] | enhanced Ub-charging | 1.4% | – | 5.6% | -10.3% | 0.89 | 5.5 ± 2.12 revertant colonies per plate | 1.2 | 7.5 ± 3.54 revertant colonies per plate | 0.65 | 4 ± 1.41 revertant colonies per plate | 27.3% and 11.9% and 4.6% and −11.1% | 8.2% | – | – | –
5 | Cc1nc2c(c(N3CCCN(Cc4ccccc4)CC3)n1)CCCC2 [Compound 31] | enhanced Ub-charging | -16.1% | – | -0.7% | 16.2% | 1.04 | 6.5 ± 0.7 revertant colonies per plate | 0.97 | 6 ± 0 revertant colonies per plate | 0.97 | 6 ± 1.41 revertant colonies per plate | 50.4% and −18.3% and 11.9% and 13.7% | 14.5% | – | 14% | –
